The target in one data set is T1, PtNAD-ME3 (Populus trichocarpa, UniProt B9GPX3).
T1 construct: gene POPTR_002G156000; mature form without mitochondrial signal peptide; pGEX-6p-3, N-terminal GST cut with PreScission; E. coli BL21; about 61 kDa on SDS-PAGE
T1 sequence (B9GPX3 23-607): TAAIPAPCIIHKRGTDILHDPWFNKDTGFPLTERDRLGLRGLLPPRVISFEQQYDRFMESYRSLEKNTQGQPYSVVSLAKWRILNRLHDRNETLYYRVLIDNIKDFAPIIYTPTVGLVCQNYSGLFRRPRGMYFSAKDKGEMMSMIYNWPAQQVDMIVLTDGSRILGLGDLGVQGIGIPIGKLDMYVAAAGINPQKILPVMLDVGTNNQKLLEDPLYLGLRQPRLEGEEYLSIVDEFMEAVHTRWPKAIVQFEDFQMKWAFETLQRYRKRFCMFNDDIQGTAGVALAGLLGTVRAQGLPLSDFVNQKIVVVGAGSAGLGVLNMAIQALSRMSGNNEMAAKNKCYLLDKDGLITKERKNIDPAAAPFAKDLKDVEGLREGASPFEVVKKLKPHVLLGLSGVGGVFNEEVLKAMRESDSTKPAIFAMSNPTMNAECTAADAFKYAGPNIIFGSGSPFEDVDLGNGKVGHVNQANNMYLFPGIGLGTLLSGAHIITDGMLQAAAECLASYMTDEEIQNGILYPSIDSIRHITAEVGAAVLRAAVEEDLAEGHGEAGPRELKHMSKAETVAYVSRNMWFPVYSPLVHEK
Kind of data set: inhibition of malate decarboxylation, NADH at […] nm. It is filed as biochemical. The conditions noted are these: inhibitor; nonsaturating malate, saturating NAD, optimum pH 7.4.

In a further data set the target is T2, PtNAD-ME4 (Populus trichocarpa, UniProt A0A2K1XS69).
T2 construct: gene POPTR_014G079900; mature form without mitochondrial signal peptide; pGEX-6p-3, N-terminal GST cut with PreScission; E. coli BL21
T2 sequence (A0A2K1XS69 22-607): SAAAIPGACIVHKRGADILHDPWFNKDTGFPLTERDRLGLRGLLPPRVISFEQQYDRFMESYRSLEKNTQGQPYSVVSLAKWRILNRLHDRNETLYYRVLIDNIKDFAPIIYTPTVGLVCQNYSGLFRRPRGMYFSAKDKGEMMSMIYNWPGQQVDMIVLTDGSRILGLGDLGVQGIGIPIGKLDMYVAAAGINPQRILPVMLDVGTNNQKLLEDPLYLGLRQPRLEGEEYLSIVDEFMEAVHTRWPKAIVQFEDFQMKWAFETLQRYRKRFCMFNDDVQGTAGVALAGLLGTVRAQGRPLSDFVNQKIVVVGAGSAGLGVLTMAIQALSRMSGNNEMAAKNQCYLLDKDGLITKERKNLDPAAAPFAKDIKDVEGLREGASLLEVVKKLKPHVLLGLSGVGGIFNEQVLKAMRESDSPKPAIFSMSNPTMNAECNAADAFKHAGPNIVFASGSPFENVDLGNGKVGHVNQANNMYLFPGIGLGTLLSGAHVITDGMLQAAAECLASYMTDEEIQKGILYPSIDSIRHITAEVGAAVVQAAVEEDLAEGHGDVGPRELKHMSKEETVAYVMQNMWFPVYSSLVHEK
The data set can be described thus: inhibition of malate decarboxylation, NADH at […] nm. The conditions noted are these: inhibitor; nonsaturating malate, saturating NAD, optimum pH 7.4. Type of data set: biochemical.

The target of the next data set is T3, PtNAD-ME2 (Populus trichocarpa, UniProt B9MVC4).
T3 construct: gene POPTR_014G043700; mature form without mitochondrial signal peptide; pGEX-6p-3, N-terminal GST cut with PreScission; E. coli BL21
T3 sequence (B9MVC4 36-627): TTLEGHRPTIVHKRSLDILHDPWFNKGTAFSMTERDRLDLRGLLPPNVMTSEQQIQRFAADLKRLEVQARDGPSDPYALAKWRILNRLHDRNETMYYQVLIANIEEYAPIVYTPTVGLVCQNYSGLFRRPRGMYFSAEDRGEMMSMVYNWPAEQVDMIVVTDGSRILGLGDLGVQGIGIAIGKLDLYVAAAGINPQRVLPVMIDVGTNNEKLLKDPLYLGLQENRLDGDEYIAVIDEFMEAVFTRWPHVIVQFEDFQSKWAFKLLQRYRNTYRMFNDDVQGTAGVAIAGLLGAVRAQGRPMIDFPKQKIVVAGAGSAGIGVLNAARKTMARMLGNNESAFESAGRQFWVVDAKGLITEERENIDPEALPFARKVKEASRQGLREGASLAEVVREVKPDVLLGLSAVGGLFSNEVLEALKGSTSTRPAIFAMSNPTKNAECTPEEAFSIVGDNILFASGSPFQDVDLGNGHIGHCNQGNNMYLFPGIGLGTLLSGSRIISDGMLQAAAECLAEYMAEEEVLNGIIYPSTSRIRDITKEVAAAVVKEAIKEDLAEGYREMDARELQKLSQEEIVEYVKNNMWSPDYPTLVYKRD
Kind of data set: inhibition of malate decarboxylation, NADH at […] nm. It is filed as biochemical. Particulars: inhibitor; nonsaturating malate, saturating NAD, optimum pH 7.2.

For the next data set, the target named is T4, PtNAD-ME1 (Populus trichocarpa, UniProt A0ACC0TE46).
T4 construct: gene POPTR_002G135300v4; mature form without mitochondrial signal peptide; pGEX-6p-3, N-terminal GST cut with PreScission; E. coli BL21; about 67 kDa on SDS-PAGE; EC 1.1.1.39
T4 sequence (A0ACC0TE46 34-627): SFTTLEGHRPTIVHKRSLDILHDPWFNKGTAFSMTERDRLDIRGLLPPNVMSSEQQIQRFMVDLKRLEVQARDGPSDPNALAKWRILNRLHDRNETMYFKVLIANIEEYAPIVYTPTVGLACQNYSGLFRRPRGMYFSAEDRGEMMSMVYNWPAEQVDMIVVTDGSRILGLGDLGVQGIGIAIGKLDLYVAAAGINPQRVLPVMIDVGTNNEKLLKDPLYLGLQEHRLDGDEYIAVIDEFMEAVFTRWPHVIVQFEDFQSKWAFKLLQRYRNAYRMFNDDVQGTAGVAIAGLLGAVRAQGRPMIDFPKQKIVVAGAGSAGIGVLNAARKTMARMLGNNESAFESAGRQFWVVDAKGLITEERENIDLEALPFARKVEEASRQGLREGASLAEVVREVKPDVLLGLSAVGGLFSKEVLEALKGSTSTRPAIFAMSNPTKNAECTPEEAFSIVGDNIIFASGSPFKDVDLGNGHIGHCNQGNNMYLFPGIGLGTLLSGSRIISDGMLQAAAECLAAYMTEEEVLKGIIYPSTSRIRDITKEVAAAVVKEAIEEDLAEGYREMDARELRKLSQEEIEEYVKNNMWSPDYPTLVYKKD
Kind of data set: inhibition of malate decarboxylation, NADH at […] nm. It is filed as biochemical. Particulars: inhibitor; nonsaturating malate, saturating NAD, optimum pH 7.2.

Substrate in data set [1]: NC(=O)c1ccc[n+]([C@@H]2O[C@H](COP(=O)(O)OP(=O)(O)OC[C@H]3O[C@@H](n4cnc5c(N)ncnc54)[C@H](O)[C@@H]3O)[C@@H](O)[C@H]2O)c1
Kind of data set: purified protein. Type of data set: biochemical, Populus trichocarpa. Particulars: saturating malate, 10 mM MnCl2, 150 mM Mes/NaOH, optimum pH 7.4.

Substrate in data set [2]: O=C(O)C[C@H](O)C(=O)O
The data set can be described thus: purified protein. It is filed as biochemical, Populus trichocarpa. The conditions noted are these: saturating NAD, 10 mM MnCl2, 150 mM Mes/NaOH, optimum pH 7.4.

From PMC3742170, “Enzymatic Properties of Populus α- and β-NAD-ME Recombinant Proteins” (International Journal of Molecular Sciences, 2013) come the findings set out here.

What is called Km is the concentration of substrate that gives half-maximal velocity. As usually defined, the kcat is the maximal rate divided by the concentration of active sites. As usually defined, the kcat/Km is the turnover number divided by the Michaelis constant.

On to `O=C(O)CC(O)(CC(=O)O)C(=O)O` [citrate], for which the “% activity” value is “OAA and citrate inhibited the activities of all” at PtNAD-ME3; “OAA and citrate inhibited the activities of all” at PtNAD-ME4; “OAA and citrate inhibited the activities of all” on PtNAD-ME2; “OAA and citrate inhibited the activities of all” on PtNAD-ME1.

Turning to `O=C(O)CC(=O)C(=O)O` [oxalacetate], the “% activity” value was “OAA and citrate inhibited the activities of all” on PtNAD-ME3; “OAA and citrate inhibited the activities of all” at PtNAD-ME4; “OAA and citrate inhibited the activities of all” on PtNAD-ME2; “OAA and citrate inhibited the activities of all” at PtNAD-ME1.

B1: PtNAD-ME3 (Populus trichocarpa) (protein)
chain: T1 sequence (B9GPX3 23-607)
notes: mature form without mitochondrial signal peptide; pGEX-6p-3, N-terminal GST cut with PreScission; E. coli BL21; about 61 kDa on SDS-PAGE
For B1, in the data set “purified protein [1]”, the Km amounted to 450 µM, the kcat worked out at 1.3 s⁻¹ and the kcat/Km turned out to be 2900 M⁻¹ s⁻¹. Further, the Km in “purified protein [2]” came out at 1300 µM.
